Series [1] concerns heartburn in patients suffering from endoscopic negative GORD. The note with it: in vivo.
Series [2] relates to intestinal system's proteolytic capacity and disacaridase potential. The note with it: cited from earlier work.
Series [3] deals with E. coli-sta enterotoxin induced diarrhoea. Further details: species or system NMRI mice. As to conditions: mouse, in vivo.
Series [4] shares this test system. Further details: species or system NMRI mice. As to conditions: mouse, in vivo. The source holds these as a separate data set.

For clinoptilolite, in series [1], the “Reported side-effects: Bloatedness” value was 3/10, the “Reported side-effects: Constipation” value is listed as 2/10, the “Reported side-effects: Nausea” value was 1/10 and the “Reported side-effects: No side-effects” value is listed as 4/10. For the same molecule, the “Reported side-effects: Sleeplessness” value in series [1] was 1/10. Moreover, the “intestinal system's proteolytic capacity and disacaridase potential” value in series [2] was “not modified”.
In the case of `CN(C)C(=O)C(CCN1CCC(O)(c2ccc(Cl)cc2)CC1)(c1ccccc1)c1ccccc1` [loperamide], in series [3], the frequency of defecation result was “significantly reduced (P<0.05)” and the “reduction in stool weight” value is given as “significant (P<0.05)”. Also, in series [4], the “mean number of stools passed” value is listed as “reduction” and the net stool weight entry is “reduction”.
